± gives the uncertainty stated by the source.
Experiment: xn = mol fraction of the nth substance listed

Brc1ccccc1 + CCCCOC(C)=O
viscosity [mPa·s], 101 kPa
Settings	298.15 K	308.15 K
x2 = 0.0489	0.919 ± 0.006	0.88 ± 0.006
x2 = 0.1488	0.737 ± 0.005	0.746 ± 0.005
x2 = 0.2514	0.615 ± 0.005	0.649 ± 0.005
x2 = 0.3499	0.54 ± 0.005	0.584 ± 0.005
x2 = 0.4493	0.495 ± 0.004	0.541 ± 0.005
x2 = 0.4965	0.482 ± 0.004	0.526 ± 0.004
x2 = 0.5512	0.474 ± 0.004	0.515 ± 0.004
x2 = 0.6501	0.474 ± 0.004	0.505 ± 0.004
x2 = 0.7497	0.496 ± 0.004	0.51 ± 0.004
x2 = 0.8499	0.542 ± 0.005	0.53 ± 0.005
x2 = 0.9226	0.595 ± 0.005	0.556 ± 0.005

Brc1ccccc1 + COC(C)=O
viscosity [mPa·s], 101 kPa
Settings	298.15 K	308.15 K
x2 = 0.0439	0.978 ± 0.006	0.915 ± 0.006
x2 = 0.1485	0.848 ± 0.006	0.811 ± 0.006
x2 = 0.2482	0.747 ± 0.005	0.725 ± 0.005
x2 = 0.3503	0.662 ± 0.005	0.649 ± 0.005
x2 = 0.4378	0.602 ± 0.005	0.592 ± 0.005
x2 = 0.4901	0.57 ± 0.005	0.561 ± 0.005
x2 = 0.5493	0.538 ± 0.005	0.529 ± 0.005
x2 = 0.6489	0.492 ± 0.004	0.48 ± 0.004
x2 = 0.7491	0.453 ± 0.004	0.437 ± 0.004
x2 = 0.8491	0.421 ± 0.004	0.399 ± 0.004
x2 = 0.9433	0.397 ± 0.004	0.368 ± 0.004

BrCCBr + C1CCCCC1
101.33 kPa
Settings	viscosity [mPa·s]
298.15 K, x1 = 0.1283	0.8597 ± 0.011
298.15 K, x1 = 0.2453	0.8556 ± 0.01
298.15 K, x1 = 0.3514	0.926 ± 0.011
298.15 K, x1 = 0.4599	0.9659 ± 0.012
298.15 K, x1 = 0.5537	1.009 ± 0.012
298.15 K, x1 = 0.6465	1.105 ± 0.013
298.15 K, x1 = 0.7406	1.208 ± 0.014
298.15 K, x1 = 0.8327	1.311 ± 0.015
298.15 K, x1 = 0.91	1.45 ± 0.017
308.15 K, x1 = 0.1562	0.7122 ± 0.0089
308.15 K, x1 = 0.2398	0.7673 ± 0.0095
308.15 K, x1 = 0.3629	0.8116 ± 0.0099
308.15 K, x1 = 0.4545	0.8447 ± 0.01
308.15 K, x1 = 0.5559	0.9064 ± 0.011
308.15 K, x1 = 0.6741	1.021 ± 0.012
308.15 K, x1 = 0.7424	1.055 ± 0.012
308.15 K, x1 = 0.8334	1.145 ± 0.013
308.15 K, x1 = 0.9281	1.286 ± 0.015

COC(=O)CC(=O)OC + c1ccccc1
303.15 K, 101 kPa
Settings	viscosity [mPa·s]
x1 = 0.0794	0.6916 ± 0.007
x1 = 0.1634	0.8208 ± 0.0082
x1 = 0.2505	0.9519 ± 0.0094
x1 = 0.3426	1.078 ± 0.011
x1 = 0.4381	1.206 ± 0.012
x1 = 0.5395	1.341 ± 0.013
x1 = 0.6457	1.456 ± 0.014
x1 = 0.7579	1.58 ± 0.015
x1 = 0.8751	1.696 ± 0.017

Brc1ccccc1 + CCC(C)=O
303.15 K, 101 kPa
Settings	viscosity [mPa·s]
x2 = 0.1487	0.899 ± 0.004
x2 = 0.2073	0.858 ± 0.004
x2 = 0.3888	0.74 ± 0.004
x2 = 0.5263	0.656 ± 0.004
x2 = 0.7046	0.556 ± 0.004
x2 = 0.8307	0.486 ± 0.004

C1COCCO1 + CCCO
viscosity [mPa·s]
Settings	298.15 K	303.15 K	308.15 K	313.15 K
101 kPa, x1 = 0.4	1.131 ± 0.028	–	–	–
101.3 kPa, x1 = 0.0923	1.609 ± 0.039	1.42 ± 0.035	1.289 ± 0.032	1.179 ± 0.029
101.3 kPa, x1 = 0.122	1.499 ± 0.037	1.332 ± 0.033	1.209 ± 0.03	1.1 ± 0.027
101.3 kPa, x1 = 0.2236	1.284 ± 0.032	1.15 ± 0.029	1.057 ± 0.026	0.9732 ± 0.025
101.3 kPa, x1 = 0.2793	1.223 ± 0.03	1.084 ± 0.027	0.9926 ± 0.025	0.9135 ± 0.023
101.3 kPa, x1 = 0.3323	1.158 ± 0.029	1.065 ± 0.027	0.9698 ± 0.025	0.8894 ± 0.023
101.3 kPa, x1 = 0.3964	1.106 ± 0.027	1.014 ± 0.025	0.9229 ± 0.024	0.8503 ± 0.022
101.3 kPa, x1 = 0.4347	1.057 ± 0.026	0.9719 ± 0.025	0.8966 ± 0.023	0.8243 ± 0.021
101.3 kPa, x1 = 0.5294	1.04 ± 0.026	0.9553 ± 0.024	0.8788 ± 0.023	0.8135 ± 0.021
101.3 kPa, x1 = 0.5833	1.028 ± 0.026	0.949 ± 0.024	0.8777 ± 0.023	0.8149 ± 0.021
101.3 kPa, x1 = 0.6365	1.028 ± 0.026	0.9503 ± 0.024	0.8792 ± 0.023	0.8185 ± 0.021
101.3 kPa, x1 = 0.6538	1.033 ± 0.026	0.9567 ± 0.024	0.8791 ± 0.023	0.8196 ± 0.021
101.3 kPa, x1 = 0.7379	1.051 ± 0.026	0.9745 ± 0.025	0.9054 ± 0.023	0.8374 ± 0.022
101.3 kPa, x1 = 0.8132	1.085 ± 0.027	0.9921 ± 0.025	0.9184 ± 0.023	0.8578 ± 0.022
101.3 kPa, x1 = 0.8989	1.117 ± 0.028	1.028 ± 0.026	0.9533 ± 0.024	0.887 ± 0.023

BrCCBr + c1ccccc1
101.33 kPa
Settings	viscosity [mPa·s]
298.15 K, x1 = 0.0999	0.6395 ± 0.0075
298.15 K, x1 = 0.2016	0.6889 ± 0.008
298.15 K, x1 = 0.312	0.8229 ± 0.0095
298.15 K, x1 = 0.4109	0.8428 ± 0.0098
298.15 K, x1 = 0.5099	0.8941 ± 0.01
298.15 K, x1 = 0.6073	1.034 ± 0.012
298.15 K, x1 = 0.7101	1.116 ± 0.013
298.15 K, x1 = 0.8038	1.253 ± 0.014
298.15 K, x1 = 0.9005	1.422 ± 0.016
308.15 K, x1 = 0.1052	0.5588 ± 0.0066
308.15 K, x1 = 0.2078	0.6034 ± 0.0071
308.15 K, x1 = 0.3146	0.6379 ± 0.0075
308.15 K, x1 = 0.4086	0.7026 ± 0.0082
308.15 K, x1 = 0.5068	0.7767 ± 0.0091
308.15 K, x1 = 0.6088	0.8569 ± 0.01
308.15 K, x1 = 0.7019	0.961 ± 0.011
308.15 K, x1 = 0.8028	1.128 ± 0.013
308.15 K, x1 = 0.9019	1.219 ± 0.014

N#C[S-].[NH4+] + CCOS(=O)(=O)[O-].CC[n+]1ccn(C)c1
viscosity [mPa·s], 101 kPa
Settings	x1 = 0.0235	x1 = 0.1553	x1 = 0.3025	x1 = 0.4042	x1 = 0.5205	x1 = 0.565	x1 = 0.5997
298.15 K	103.1 ± 1.7	150 ± 3.3	209.3 ± 5.7	231.1 ± 6.7	223.9 ± 6.5	215.9 ± 6.1	208.9 ± 5.8
303.15 K	81.26 ± 1.1	118 ± 2.2	163.3 ± 3.9	178.7 ± 4.6	173.4 ± 4.5	172.5 ± 4.4	168.2 ± 4.2
308.15 K	65.16 ± 0.72	94.31 ± 1.5	129.6 ± 2.6	140.9 ± 3.1	135.3 ± 3	133.9 ± 2.9	133.7 ± 2.9
313.15 K	53.09 ± 0.51	76.57 ± 0.97	104.6 ± 1.8	112.9 ± 2.1	107.5 ± 2	106 ± 2	105.4 ± 2
318.15 K	43.86 ± 0.44	63.03 ± 0.67	85.57 ± 1.2	91.83 ± 1.4	86.87 ± 1.4	85.31 ± 1.3	84.57 ± 1.3
323.15 K	36.68 ± 0.35	52.56 ± 0.5	70.9 ± 0.86	75.56 ± 1	71.22 ± 0.95	69.75 ± 0.94	68.92 ± 0.94

Brc1ccccc1 + COc1ccccc1
viscosity [mPa·s], 101 kPa
Settings	x2 = 0.0996	x2 = 0.1949	x2 = 0.2927	x2 = 0.3925	x2 = 0.4935	x2 = 0.5913	x2 = 0.6919	x2 = 0.7952	x2 = 0.8992
298.15 K	1.084 ± 0.0099	1.079 ± 0.0099	1.072 ± 0.0098	1.059 ± 0.0098	1.052 ± 0.0097	1.042 ± 0.0097	1.032 ± 0.0097	1.024 ± 0.0096	1.013 ± 0.0095
303.15 K	1.017 ± 0.0095	1.011 ± 0.0095	1.005 ± 0.0094	0.9905 ± 0.0094	0.9826 ± 0.0093	0.9704 ± 0.0093	0.9621 ± 0.0092	0.952 ± 0.0092	0.9439 ± 0.0091
308.15 K	0.957 ± 0.0091	0.9479 ± 0.0091	0.9392 ± 0.009	0.9236 ± 0.009	0.9158 ± 0.0089	0.9055 ± 0.0089	0.8959 ± 0.0088	0.8857 ± 0.0088	0.8768 ± 0.0087
313.15 K	0.8974 ± 0.0088	0.8903 ± 0.0087	0.8784 ± 0.0087	0.8659 ± 0.0086	0.8558 ± 0.0086	0.8442 ± 0.0085	0.8346 ± 0.0085	0.8247 ± 0.0084	0.8135 ± 0.0084
